In data set [1] the test system is P388. The data set is described as follows: Antitumor activity against mouse P388 cells allografted in DBA/2 mouse assessed as survival rate at 25 mg/kg relative to control. In kind it is functional.
Data set [2] in a line: Cytotoxicity against human Hep2 cells assessed as growth inhibition by microtiter method. In kind it is functional. As to conditions: HEp-2, read-out: ED50 (the source's name).
The subject of the next data set is W256. The data set is described as follows: Antitumor activity against rat Walker 256 cells allografted in Sprague-Dawley rat assessed as survival rate at 2.5 mg/kg relative to control. In kind it is functional.
The subject of data set [3] is P388. The data set is described as follows: Antitumor activity against mouse P388 cells allografted in DBA/2 mouse assessed as survival rate at 48 mg/kg relative to control. In kind it is functional.
Data set [4] deals with P388. Description: Antitumor activity against mouse P388 cells allografted in DBA/2 mouse assessed as survival rate at 10 mg/kg relative to control. Format: functional.
A short description of data set [5]: Toxicity in Sprague-Dawley rat allografted with rat Walker 256 cells assessed as mortality after 4 days. In kind it is organism-based. The settings on record: read-out: MNTD.
The test system of data set [6] is P388. The data set is described as follows: Antitumor activity against mouse P388 cells allografted in DBA/2 mouse assessed as survival rate at 16.8 mg/kg relative to control. In kind it is functional.
The nature of data set [7]: Toxicity in DBA/2 mouse allografted with mouse P388 cells assessed as mortality after 4 days. Format: organism-based. As to conditions: read-out: MNTD.
Data set [8] deals with P388. The data set is described as follows: Antitumor activity against mouse P388 cells allografted in DBA/2 mouse assessed as survival rate at 4 mg/kg relative to control. In kind it is functional.

Results on 14 compounds are retold here after ChEMBL document CHEMBL3244430, “Antitumor agents. 31. Helenalin sym-dimethylethylenediamine reaction products and related derivatives” (J Med Chem, 1978).

Each structure is given as a SMILES string.

One may read the T/C as the ratio of treated to control.

As to `C=C1C(=O)O[C@@H]2C[C@@H](C)[C@@H]3C=CC(=O)[C@@]3(C)[C@@H](OC(C)=O)[C@H]12` [ANGUSTIBALIN], the T/C in the data set with P388 [1] was found to be 78%. For the same compound, in data set [2], the EC50 was 0.29 µg/mL.

For `C[C@@H]1C[C@H]2OC(=O)[C@@H](C)[C@H]2[C@H](O)[C@]2(C)C(=O)C=C[C@@H]12`, in [2], the EC50 is 0.81 µg/mL. The T/C with W256 was 207%; with P388 [3] it was 138%.

For `C[C@@H]1C[C@@H](OC(=O)/C=C/c2ccccc2)[C@@H](C2CN(C)CCN(C)C2=O)[C@H](OC(=O)/C=C/c2ccccc2)[C@]2(C)C(=O)C=C[C@@H]12` (some centres undefined), in [2], the EC50 worked out at 0.75 µg/mL. Moreover, the T/C stood at 288% in the data set on W256 and 100% in the data set on P388 [4].

With `CC(=O)O[C@H]1[C@H](C2CN(C)CCN(C)C2=O)[C@H](OC(=O)/C=C/c2ccccc2)C[C@@H](C)[C@@H]2C=CC(=O)[C@]21C` (some centres undefined), the T/C with P388 [1] is recorded as 102%. For the same compound, the EC50 in data set [2] turned out to be 0.84 µg/mL.

With `N[C@@H](Cc1ccc(N(CCCl)CCCl)cc1)C(=O)O` [MELPHALAN], the figures for the T/C with P388 [1] and in the data set with W256 were 168% and 317%, respectively.

With `C[C@@H]1C[C@@H](OC(=O)/C=C/c2ccccc2)[C@@H](C2CN(C)CCN(C)C2=O)[C@H](O)[C@]2(C)C(=O)C=C[C@@H]12` (some centres undefined), the EC50 in [2] is 2.89 µg/mL. For the same compound, in the data set on P388 [4], the T/C was 123%.

Regarding `CC(=O)O[C@H]1[C@H](C2CN(C)CCN(C)C2=O)[C@H](O)C[C@@H](C)[C@@H]2C=CC(=O)[C@]21C` (some centres undefined), in the data set on P388 [1], the T/C stood at 100%. The EC50 in data set [2] was 4.96 µg/mL.

`C=C1C(=O)O[C@@H]2C[C@@H](C)[C@@H]3C=CC(=O)[C@@]3(C)[C@@H](O)[C@H]12` [HELENALIN]: the MTD at 96 h in [5] stood at 2.5 mg/kg; in data set [7] it was 16.8 mg/kg. Besides, the T/C with P388 [6] came to 127%; in the data set with W256, 316%. The EC50 in data set [2] came to 0.08 µg/mL.

For the compound `C[C@@H]1C[C@H]2OC(=O)C(CN(C)C)[C@H]2[C@H](O)[C@]2(C)C(O)CC[C@@H]12` (some centres undefined), the EC50 in [2] worked out at 3.69 µg/mL.

With `C[C@@H]1C[C@H]2OC(=O)C(CN(C)C)[C@H]2[C@H](O)[C@]2(C)C(=O)C=C[C@@H]12` (some centres undefined), the T/C with P388 [1] is listed as 130%. Moreover, the EC50 in data set [2] amounted to 0.6 µg/mL.

As for `C[C@@H]1C[C@@H](O)[C@@H]([C@H]2CN(C)CCN(C)C2=O)[C@H](O)[C@]2(C)C(=O)C=C[C@@H]12`, the T/C is given as 126% with P388 [1] and 170% in the data set on W256. The EC50 in data set [2] was found to be 1.87 µg/mL.

Take `O=c1[nH]cc(F)c(=O)[nH]1` [FLUOROURACIL]: the T/C with P388 [1] was 186%.

With `C[C@@H]1C[C@H]2OC(=O)C(CN(C)C)[C@H]2[C@H](O)[C@]2(C)C(=O)CC(N(C)C)[C@@H]12` (some centres undefined), the EC50 in data set [2] stood at 0.85 µg/mL. Moreover, the T/C in the data set on W256 was found to be 136%; with P388 [4] it was 102%.

Turning to `C=C1C(=O)O[C@@H]2C[C@@H](C)[C@@H]3C=CC(=O)[C@@]3(C)[C@@H](OC(=O)/C=C/c3ccccc3)[C@H]12`, the EC50 in [2] is 0.04 µg/mL. Also, the T/C in the data set with W256 was found to be 157%; in the data set on P388 [8], 123%.
